Experimental data as given in patent EP0545103A1, “Insecticidal, acaricidal and molluscicidal 1-(substituted) thioalkylpyrroles” (priority 1991, dated 1993).

What was measured:
Assay type in all cases: in vivo
Set-up in all cases: key: 0: no effect; 10-25% kill; 26-35% kill; 36-45% kill; 46-55% kill; 56-65% kill; 66-75% kill; 76-85% kill; 86-99% kill; 9: 100% kill
[1] = system: Heliothis virescens, egg, tobacco budworm; assay: Tobacco budworm egg test, dipped cotton leaf and eggs; settings: mortality rating after 3 days
Method in brief: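 Scoring is by mortality counts after 3 days, graded on a rating scale. Tobacco budworm eggs (6-30 h old) on cheesecloth and a young cotton leaf were each dipped about 3 s in the test suspension. Suspensions were made from a 10,000 ppm stock in 35% acetone/water with further water dilutions.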

[2] = system: Diabrotic undecimpunctata howardi, 3rd instar southern corn rootworm; assay: Southern corn rootworm soil test; settings: mortality rating after 6 days
Method in brief: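 Soil test with ten 3rd instar larvae per jar, mortality read after 6 days and missing larvae counted as dead; scores on a rating scale. Doses were 1.25 and 0.25 mg a.i. per jar, corresponding to roughly 50 and 10 kg/ha, loaded on talc from acetone and mixed into moist soil with millet seed as food.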

[3] = system: Empoasca abrupta, adult, western potato leafhopper; assay: Western potato leafhopper systemic uptake test; settings: 100 ppm
Method in brief: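 Leafhopper mortality, rated on a scale, scored 2 days after about 10 adults were confined with a leaf in a moist dish. The leaf came from a cut lima bean stem that had taken up the compound emulsion (100 ppm and 10-fold dilutions) over 3 days at 27 °C.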

[4] = system: Spodoptera eridania, 3rd instar larvae, southern armyworm; assay: Southern armyworm systemic uptake (stem systemic) test; settings: cut stem in emulsion 3 days
[5] = system: Spodoptera eridania, 3rd instar larvae, southern armyworm; assay: Southern armyworm 7-day residual test; settings: R designates Residual: 7-day residual foliage, concentration not given; for ARMYWORM Day 3 R: rating at 3 days; for ARMYWORM Day 5 R: rating at 5 days
Method in brief: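 Third-instar southern armyworm larvae were exposed to lima bean foliage that had been treated, then held 7 days under greenhouse lamps simulating bright sun for 14 h per day. Treatment solutions were diluted in water from a 10,000 ppm stock in 35% acetone. Results are scale ratings.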

[6] = system: Spodoptera eridania, 3rd instar larvae, southern armyworm; assay: Southern armyworm 3rd instar test, dipped limabean leaf; settings: for ARMYWORM Day 3: rating at 3 days; for ARMYWORM Day 5: rating at 5 days
Method in brief: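 Ten 3rd instar larvae fed on limabean leaves that had been dipped for 3 s in test solution and dried. Test solutions were diluted in water from a 10,000 ppm stock in 35% acetone/water. Ratings at days 3 and 5 covered death, feeding reduction and abnormal molting.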

[7] = systemic uptake, rating scale 0-9
[8] = cut stem in emulsion 3 days, mortality rating after 2 days

| SMILES | TOBACCO BUDWORM Egg ([1]; 100 ppm) | TOBACCO BUDWORM Egg ([1]; 1000 ppm) | SOUTHERN CORN ROOTWORM ([2]; 50 (ppm as headed)) | LEAFHOPPER Systemic [3, 7] | ARMYWORM Stem Sys [4] | ARMYWORM Day 3 R [5] | ARMYWORM Day 5 R [5] | ARMYWORM Day 3 ([6]; 10 ppm) | ARMYWORM Day 5 ([6]; 10 ppm) | ARMYWORM Day 3 ([6]; 100 ppm) | ARMYWORM Day 5 ([6]; 100 ppm) | ARMYWORM Day 3 ([6]; 1000 ppm) | ARMYWORM Day 5 ([6]; 1000 ppm) | SOUTHERN CORN ROOTWORM ([2]; 1 (ppm as headed)) | SOUTHERN CORN ROOTWORM ([2]; 10 (ppm as headed)) | LEAFHOPPER Systemic [3, 8] |
| --- | --- | --- | --- | --- | --- | --- | --- | --- | --- | --- | --- | --- | --- | --- | --- | --- |
| CCOC(=S)SCn1c(Cl)c(Cl)c(C#N)c1-c1ccc(Cl)c(Cl)c1 [Example 28] | 0 | 0 | 0 | 0 | 0 | 9 (100% kill) | 9 (100% kill) |  |  |  |  |  |  |  |  |  |
| CN=C(NC)SCn1c(-c2ccc(Cl)cc2)c(C#N)c(Cl)c1C(F)(F)F [Example 2] | 0 | 0 | 8 (86-99% kill) |  | 0 | 9 (100% kill) | 9 (100% kill) | 9 (100% kill) | 9 (100% kill) | 9 (100% kill) | 9 (100% kill) | 9 (100% kill) | 9 (100% kill) | 0 | 0 | 0 |
| CN=C(NC)SCn1c(Br)c(Br)c(C#N)c1Br [Example 14] |  | 0 | 0 | 7 (76-85% kill) | 0 | 0 | 5 (56-65% kill) | 0 | 0 | 9 (100% kill) | 9 (100% kill) | 9 (100% kill) | 9 (100% kill) |  |  |  |
| CC1(C)CN=C(SCn2c(-c3ccc(Cl)cc3)c(C#N)c(Br)c2C(F)(F)F)NC1 [Example 10] | 0 | 0 | 0 | 6 (66-75% kill) | 0 | 9 (100% kill) | 9 (100% kill) | 0 | 0 | 9 (100% kill) | 9 (100% kill) | 9 (100% kill) | 9 (100% kill) |  |  |  |
| N#Cc1c(Br)c(Br)n(CSc2ccccc2)c1-c1ccc(C(F)(F)F)cc1 [Example 45, 4,5-dibromo-1-[(phenylthio)methyl]-2-(alpha, alpha,alpha-trifluoro-p-tolyl)pyrrole-3-carbonitrile] |  | 0 | 0 |  | 0 | 0 | 0 |  |  | 0 | 0 | 8 (86-99% kill) | 8 (86-99% kill) |  |  |  |
| CN(C)C(=S)SCn1c(-c2ccc(Cl)cc2)c(C#N)c(Br)c1C(F)(F)F [Example 24] |  | 0 | 9 (100% kill) |  | 0 | 9 (100% kill) | 9 (100% kill) | 9 (100% kill) | 9 (100% kill) | 9 (100% kill) | 9 (100% kill) | 9 (100% kill) | 9 (100% kill) | 0 | 0 | 0 |
| CSCn1c(Br)c(Br)c(C#N)c1-c1ccc(C(F)(F)F)cc1 [Example 44] |  | 0 | 3 (36-45% kill) |  | 0 | 0 | 2 (26-35% kill) | 0 | 0 | 9 (100% kill) | 9 (100% kill) | 9 (100% kill) | 9 (100% kill) |  | 0 | 0 |
| CCOC(=S)SCn1c(-c2ccc(Cl)c(Cl)c2)c(Br)c(C(F)(F)F)c1C(F)(F)F [Example 35] |  | 0 | 0 | 0 | 0 | 9 (100% kill) | 9 (100% kill) | 9 (100% kill) | 9 (100% kill) | 9 (100% kill) | 9 (100% kill) | 9 (100% kill) | 9 (100% kill) |  |  |  |
| N#Cc1c(Br)c(Br)n(CSC2=NCCCN2)c1Br [Example 13] |  | 0 | 0 | 0 | 7 (76-85% kill) | 0 | 7 (76-85% kill) |  |  | 0 |  | 9 (100% kill) |  |  |  |  |
| CSCn1c(-c2ccc(Cl)cc2)c(C#N)c(Br)c1C(F)(F)F [Example 25] |  | 0 | 0 |  | 0 | 9 (100% kill) | 9 (100% kill) | 0 | 0 | 9 (100% kill) | 9 (100% kill) | 9 (100% kill) | 9 (100% kill) |  | 0 | 0 |
| CN(C)C(=S)SCn1c(Cl)c(C#N)c(Cl)c1-c1ccc(Cl)c(Cl)c1 [Example 36] |  | 0 | 0 | 0 | 0 | 9 (100% kill) | 9 (100% kill) |  |  |  |  |  |  |  |  |  |
